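Abbreviation: GI50, concentration required for 50% inhibition of growth. TGI: total growth inhibition.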
Tests used:
Assay in all cases: NCI tumour cell line growth inhibition, 384-well format
[1] = tested on: 786-0 renal
[2] = tested on: A498 renal
[3] = tested on: A549 NSCLC
[4] = tested on: ACHN renal
[5] = tested on: BT-549 breast
[6] = tested on: CAKI-1 renal
[7] = tested on: CCRF-CEM leukemia
[8] = tested on: COLO 205 colon
[9] = tested on: DU-145 prostate
[10] = tested on: EKVX NSCLC
[11] = tested on: HCC-2998 colon
[12] = tested on: HCT-15 colon
[13] = tested on: HL-60(TB) leukemia
[14] = tested on: HOP-62 NSCLC
[15] = tested on: HOP-92 NSCLC
[16] = tested on: HS 578T breast
[17] = tested on: HT29 colon
[18] = tested on: IGROV1 ovarian
[19] = tested on: KM12 colon
[20] = tested on: M14 melanoma
[21] = tested on: MALME-3M melanoma
[22] = tested on: MCF7 breast
[23] = tested on: MDA-MB-231 breast
[24] = tested on: MDA-MB-435 melanoma
[25] = tested on: MDA-MB-468 breast
[26] = tested on: MOLT-4 leukemia
[27] = tested on: NCI-H226 lung
[28] = tested on: NCI-H23 lung
[29] = tested on: NCI-H322M lung
[30] = tested on: NCI-H460 NSCLC
[31] = tested on: NCI-H522 lung
[32] = tested on: NCI/ADR-RES ovarian
[33] = tested on: OVCAR-3 ovarian
[34] = tested on: OVCAR-4 ovarian
[35] = tested on: OVCAR-5 ovarian
[36] = tested on: OVCAR-8 ovarian
[37] = tested on: PC-3 prostate
[38] = tested on: RPMI-8226 leukemia
[39] = tested on: RXF 393 renal
[40] = tested on: SF-268 CNS
[41] = tested on: SF-295 CNS
[42] = tested on: SF-539 CNS
[43] = tested on: SK-MEL-2 melanoma
[44] = tested on: SK-MEL-28 melanoma
[45] = tested on: SK-MEL-5 melanoma
[46] = tested on: SK-OV-3 ovarian
[47] = tested on: SN12C renal
[48] = tested on: SNB-19 CNS
[49] = tested on: SNB-75 CNS
[50] = tested on: SR leukemia
[51] = tested on: SW-620 colon
[52] = tested on: T-47D breast
[53] = tested on: TK-10 renal
[54] = tested on: U251 glioblastoma
[55] = tested on: UACC-257 melanoma
[56] = tested on: UACC-62 melanoma

Question: What does the source list for CN(C)CCN1C(=O)c2cccc3cc(N)cc(c23)C1=O?
Answer: GI50 [1]: 3.13 µM; TGI [1]: 13.5 µM; GI50 [2]: 1.26 µM; TGI [2]: 4.62 µM; GI50 [3]: 1.17 µM; TGI [3]: 3.64 µM; GI50 [4]: 2.31 µM; TGI [4]: 4.44 µM; GI50 [5]: 2.87 µM; TGI [5]: 7.03 µM; GI50 [6]: 2.2 µM; TGI [6]: 6.36 µM; GI50 [7]: 1 µM; TGI [7]: 2.19 µM; GI50 [8]: 1.98 µM; TGI [8]: 5.32 µM; GI50 [9]: 2.28 µM; TGI [9]: 14.2 µM; GI50 [10]: 4.87 µM; TGI [10]: 19.6 µM; GI50 [11]: 2.01 µM; TGI [11]: 5.47 µM; GI50 [12]: 2.56 µM; TGI [12]: 8.07 µM; GI50 [13]: 1.09 µM; TGI [13]: 2.35 µM; GI50 [14]: 1.5 µM; TGI [14]: 3.65 µM; GI50 [15]: 2.49 µM; TGI [15]: 6.89 µM; GI50 [16]: 1.42 µM; TGI [16]: 5.1 µM; GI50 [17]: 2.5 µM; TGI [17]: 6.43 µM; GI50 [18]: 3.07 µM; TGI [18]: 16.5 µM; GI50 [19]: 2.85 µM; TGI [19]: 14.8 µM; GI50 [20]: 2.72 µM; TGI [20]: 7.79 µM; GI50 [21]: 2.2 µM; TGI [21]: 4.92 µM; GI50 [22]: 2.92 µM; TGI [22]: 16.3 µM; GI50 [23]: 2.03 µM; TGI [23]: 5.55 µM; GI50 [24]: 3.44 µM; TGI [24]: 12 µM; GI50 [25]: 1.88 µM; TGI [25]: 4.73 µM; GI50 [26]: 0.242 µM; TGI [26]: 0.572 µM; GI50 [27]: 2.02 µM; TGI [27]: 4.05 µM; GI50 [28]: 2.45 µM; TGI [28]: 5.59 µM; GI50 [29]: 4.51 µM; TGI [29]: 18.2 µM; GI50 [30]: 0.791 µM; TGI [30]: 2.27 µM; GI50 [31]: 1.34 µM; TGI [31]: 3.03 µM; GI50 [32]: 2.8 µM; TGI [32]: 7.79 µM; GI50 [33]: 4.01 µM; TGI [33]: 14 µM; GI50 [34]: 2.62 µM; TGI [34]: 5.94 µM; GI50 [35]: 2.46 µM; TGI [35]: 6.66 µM; GI50 [36]: 1.8 µM; TGI [36]: 3.63 µM; GI50 [37]: 3.49 µM; TGI [37]: 11.3 µM; GI50 [38]: 1.4 µM; TGI [38]: 2.82 µM; GI50 [39]: 2.47 µM; TGI [39]: 6.06 µM; GI50 [40]: 3.06 µM; TGI [40]: 8.24 µM; GI50 [41]: 2.77 µM; TGI [41]: 12.1 µM; GI50 [42]: 2.22 µM; TGI [42]: 6.64 µM; GI50 [43]: 4.1 µM; TGI [43]: 6.11 µM; GI50 [44]: 4.01 µM; TGI [44]: 8.86 µM; GI50 [45]: 1.96 µM; TGI [45]: 3.53 µM; GI50 [46]: 2.12 µM; TGI [46]: 6.21 µM; GI50 [47]: 2.53 µM; TGI [47]: 11.4 µM; GI50 [48]: 2.16 µM; TGI [48]: 6.75 µM; GI50 [49]: 1.35 µM; TGI [49]: 4.62 µM; GI50 [50]: 1.38 µM; TGI [50]: 2.69 µM; GI50 [51]: 3.12 µM; TGI [51]: 12.1 µM; GI50 [52]: 2.73 µM; TGI [52]: 6.62 µM; GI50 [53]: 2.34 µM; TGI [53]: 7.61 µM; GI50 [54]: 2.38 µM; TGI [54]: 5.62 µM; GI50 [55]: 2.68 µM; TGI [55]: 6.03 µM; GI50 [56]: 1.85 µM; TGI [56]: 3.61 µM

Reference: PubChem BioAssay (NCI)
